Results taken from ChEMBL document CHEMBL3352670, “Synthesis, biological evaluation and molecular modeling of 1,3,4-thiadiazol-2-amide derivatives as novel antitubulin agents” (Bioorg Med Chem, 2014).
Each block holds one compound with its values, some of them ahead of it.

What was measured:
A549 [1] = assay: Antiproliferative activity against human A549 cells after 48 hrs by MTT assay; format: functional, cell-based; settings: A549, 48 h
Tubulin = Tubulin (Bos taurus, UniProt Q6B856+Q862L2+Q862F3); assay: Inhibition of bovine brain tubulin polymerization after 20 mins by turbidimetric method
MCF7 = assay: Antiproliferative activity against human MCF7 cells after 48 hrs by MTT assay; format: functional, cell-based; settings: MCF7, 48 h
HepG2 = assay: Antiproliferative activity against […] HepG2 cells after 48 hrs by MTT assay; format: functional, cell-based; settings: Homo sapiens, HepG2, 48 h
A549 [2] = assay: Induction of apoptosis in human A549 cells assessed as necrotic cells at 0.01 uM after 24 hrs using Annexin-V/PI staining by flow cytometry (reference value: 3.11 %); format: functional
A549 [3] = assay: Cell cycle arrest in human A549 cells assessed as accumulation at G1 phase at 0.05 uM after 48 hrs by flow cytometry (reference value: 79.42 %); format: functional
A549 [4] = assay: Induction of apoptosis in human A549 cells assessed as late apoptotic cells at 0.05 uM after 24 hrs using Annexin-V/PI staining by flow cytometry (reference value: 4.01 %); format: functional
A549 [5] = assay: Cell cycle arrest in human A549 cells assessed as accumulation at S phase at 0.1 uM after 48 hrs by flow cytometry (reference value: 13.83 %); format: functional
A549 [6] = assay: Induction of apoptosis in human A549 cells assessed as early apoptotic cells at 0.05 uM after 24 hrs using Annexin-V/PI staining by flow cytometry (reference value: 1.92 %); format: functional
A549 [7] = assay: Induction of apoptosis in human A549 cells assessed as necrotic cells at 0.05 uM after 24 hrs using Annexin-V/PI staining by flow cytometry (reference value: 3.11 %); format: functional
A549 [8] = assay: Induction of apoptosis in human A549 cells assessed as late apoptotic cells at 0.1 uM after 24 hrs using Annexin-V/PI staining by flow cytometry (reference value: 4.01 %); format: functional
A549 [9] = assay: Induction of apoptosis in human A549 cells assessed as early apoptotic cells at 0.1 uM after 24 hrs using Annexin-V/PI staining by flow cytometry (reference value: 1.92 %); format: functional
A549 [10] = assay: Induction of apoptosis in human A549 cells assessed as viable cells at 0.01 uM after 24 hrs using Annexin-V/PI staining by flow cytometry (reference value: 91.0 %); format: functional; settings: A549, 24 h, read-out: Activity
A549 [11] = assay: Induction of apoptosis in human A549 cells assessed as necrotic cells at 0.1 uM after 24 hrs using Annexin-V/PI staining by flow cytometry (reference value: 3.11 %); format: functional
A549 [12] = assay: Cell cycle arrest in human A549 cells assessed as accumulation at G2 phase at 0.01 uM after 48 hrs by flow cytometry (reference value: 6.75 %); format: functional
A549 [13] = assay: Induction of apoptosis in human A549 cells assessed as early apoptotic cells at 0.01 uM after 24 hrs using Annexin-V/PI staining by flow cytometry (reference value: 1.92 %); format: functional
A549 [14] = assay: Induction of apoptosis in human A549 cells assessed as late apoptotic cells at 0.01 uM after 24 hrs using Annexin-V/PI staining by flow cytometry (reference value: 4.01 %); format: functional
A549 [15] = assay: Induction of apoptosis in human A549 cells assessed as viable cells at 0.1 uM after 24 hrs using Annexin-V/PI staining by flow cytometry (reference value: 91.0 %); format: functional; settings: A549, 24 h, read-out: Activity
A549 [16] = assay: Cell cycle arrest in human A549 cells assessed as accumulation at G2 phase at 0.05 uM after 48 hrs by flow cytometry (reference value: 6.75 %); format: functional
A549 [17] = assay: Cell cycle arrest in human A549 cells assessed as accumulation at G2 phase at 0.1 uM after 48 hrs by flow cytometry (reference value: 6.75 %); format: functional
A549 [18] = assay: Cell cycle arrest in human A549 cells assessed as accumulation at S phase at 0.01 uM after 48 hrs by flow cytometry (reference value: 13.83 %); format: functional
A549 [19] = assay: Cell cycle arrest in human A549 cells assessed as accumulation at G1 phase at 0.1 uM after 48 hrs by flow cytometry (reference value: 79.42 %); format: functional
A549 [20] = assay: Induction of apoptosis in human A549 cells assessed as viable cells at 0.05 uM after 24 hrs using Annexin-V/PI staining by flow cytometry (reference value: 91.0 %); format: functional; settings: A549, 24 h, read-out: Activity
A549 [21] = assay: Cell cycle arrest in human A549 cells assessed as accumulation at S phase at 0.05 uM after 48 hrs by flow cytometry (reference value: 13.83 %); format: functional
A549 [22] = assay: Cell cycle arrest in human A549 cells assessed as accumulation at G1 phase at 0.01 uM after 48 hrs by flow cytometry (reference value: 79.42 %); format: functional
A549 [23] = assay: Cell cycle arrest in human A549 cells assessed as G2/M arrest after 48 hrs by flow cytometry; format: functional, cell-based

IC50 (A549 [1]): 80 nM | IC50 (Tubulin): 7080 nM | IC50 (MCF7): 340 nM | IC50 (HepG2): 170 nM
SMILES: COc1cc(/C=C/c2nnc(NC(=O)c3cccc(F)c3)s2)c(Br)c(OC)c1OC

IC50 (A549 [1]): 140 nM | IC50 (Tubulin): 11810 nM | IC50 (MCF7): 280 nM | IC50 (HepG2): 180 nM
SMILES: COc1cc(/C=C/c2nnc(NC(=O)c3ccc(Cl)cc3)s2)c(Br)c(OC)c1OC

IC50 (A549 [1]): 150 nM | IC50 (Tubulin): 18790 nM | IC50 (MCF7): 560 nM | IC50 (HepG2): 220 nM
SMILES: COc1ccc(C(=O)Nc2nnc(/C=C/c3cc(OC)c(OC)c(OC)c3Br)s2)cc1

IC50 (A549 [1]): 170 nM | IC50 (Tubulin): 17910 nM | IC50 (MCF7): 600 nM | IC50 (HepG2): 230 nM
SMILES: COc1ccccc1C(=O)Nc1nnc(/C=C/c2cc(OC)c(OC)c(OC)c2Br)s1

IC50 (A549 [1]): 110 nM | IC50 (Tubulin): 9830 nM | IC50 (MCF7): 290 nM | IC50 (HepG2): 180 nM
SMILES: COc1cc(/C=C/c2nnc(NC(=O)c3ccccc3)s2)c(Br)c(OC)c1OC

IC50 (A549 [1]): 60 nM | IC50 (Tubulin): 3080 nM | IC50 (MCF7): 170 nM | IC50 (HepG2): 120 nM
SMILES: COc1cccc(C(=O)Nc2nnc(/C=C/c3cc(OC)c(OC)c(OC)c3Br)s2)c1

IC50 (A549 [1]): 190 nM | IC50 (Tubulin): 15630 nM | IC50 (MCF7): 380 nM | IC50 (HepG2): 240 nM
SMILES: COc1cc(/C=C/c2nnc(NC(=O)c3ccc(F)cc3)s2)c(Br)c(OC)c1OC

IC50 (A549 [1]): 80 nM | IC50 (Tubulin): 6020 nM | IC50 (MCF7): 260 nM | IC50 (HepG2): 160 nM
SMILES: COc1cc(/C=C/c2nnc(NC(=O)c3cccc(Br)c3)s2)c(Br)c(OC)c1OC

IC50 (A549 [1]): 120 nM | IC50 (Tubulin): 13440 nM | IC50 (MCF7): 360 nM | IC50 (HepG2): 220 nM
SMILES: COc1cc(/C=C/c2nnc(NC(=O)c3cccc(O)c3)s2)c(Br)c(OC)c1OC

IC50 (A549 [1]): 160 nM | IC50 (Tubulin): 15090 nM | IC50 (MCF7): 320 nM | IC50 (HepG2): 200 nM
SMILES: COc1cc(/C=C/c2nnc(NC(=O)c3ccc(Br)cc3)s2)c(Br)c(OC)c1OC

IC50 (A549 [1]): 210 nM | IC50 (Tubulin): 19450 nM | IC50 (MCF7): 370 nM | IC50 (HepG2): 250 nM
SMILES: COc1cc(/C=C/c2nnc(NC(=O)c3ccccc3Br)s2)c(Br)c(OC)c1OC

IC50 (A549 [1]): 70 nM | IC50 (Tubulin): 5680 nM | IC50 (MCF7): 230 nM | IC50 (HepG2): 150 nM
SMILES: COc1cc(/C=C/c2nnc(NC(=O)c3cccc(Cl)c3)s2)c(Br)c(OC)c1OC

IC50 (A549 [1]): 30 nM | IC50 (Tubulin): 1730 nM | IC50 (MCF7): 60 nM | IC50 (HepG2): 50 nM
SMILES: COc1ccc(C(=O)Nc2nnc(/C=C/c3cc(OC)c(OC)c(OC)c3Br)s2)cc1OC
Activity (A549 [2]): 3.86% | Activity (A549 [3]): 37.17% | Activity (A549 [4]): 12.7% | Activity (A549 [5]): 10.74% | Activity (A549 [6]): 5.48% | Activity (A549 [7]): 4.08% | Activity (A549 [8]): 22% | Activity (A549 [9]): 12.9% | viability at 0.01 µM (A549 [10]): 84.8% | Activity (A549 [11]): 3.21% | Activity (A549 [12]): 7.14% | Activity (A549 [13]): 3.41% | Activity (A549 [14]): 7.96% | viability at 0.1 µM (A549 [15]): 61.8% | Activity (A549 [16]): 53.34% | Activity (A549 [17]): 89.26% | Activity (A549 [18]): 19.68% | Activity (A549 [19]): 0% | viability at 0.05 µM (A549 [20]): 77.8% | Activity (A549 [21]): 9.49% | Activity (A549 [22]): 73.18% | Activity (A549 [23]): Dose-dependent effect

Second part, the compound before the results:

SMILES: COc1cccc(C(=O)Nc2nnc(/C=C/c3cc(OC)c(OC)c(OC)c3)s2)c1
IC50 (A549 [1]): 150 nM | IC50 (Tubulin): 22500 nM | IC50 (MCF7): 480 nM | IC50 (HepG2): 270 nM

SMILES: COc1cccc(/C=C/c2nnc(NC(=O)c3cc(OC)c(OC)c(OC)c3Br)s2)c1
IC50 (A549 [1]): 190 nM | IC50 (Tubulin): 30360 nM | IC50 (MCF7): 590 nM | IC50 (HepG2): 210 nM

SMILES: COc1ccc(C(=O)Nc2nnc(/C=C/c3cc(OC)c(OC)c(OC)c3)s2)cc1OC
IC50 (A549 [1]): 130 nM | IC50 (Tubulin): 15500 nM | IC50 (MCF7): 480 nM | IC50 (HepG2): 250 nM

SMILES: COc1cc(/C=C/c2nnc(NC(=O)c3cc(OC)c(OC)c(OC)c3Br)s2)c(Br)c(OC)c1OC
IC50 (A549 [1]): 130 nM | IC50 (Tubulin): 16790 nM | IC50 (MCF7): 470 nM | IC50 (HepG2): 200 nM

SMILES: COc1cc(/C=C/c2nnc(NC(=O)c3cc(OC)c(OC)c(OC)c3)s2)cc(OC)c1OC
IC50 (A549 [1]): 160 nM | IC50 (Tubulin): 23940 nM | IC50 (MCF7): 490 nM | IC50 (HepG2): 280 nM

SMILES: COc1ccc(/C=C\c2cc(OC)c(OC)c(OC)c2)cc1O [COMBRETASTATIN A4]
IC50 (HepG2): 160 nM

SMILES: COc1ccc(/C=C/c2nnc(NC(=O)c3cc(OC)c(OC)c(OC)c3)s2)cc1OC
IC50 (A549 [1]): 160 nM | IC50 (Tubulin): 28060 nM | IC50 (MCF7): 560 nM | IC50 (HepG2): 220 nM

SMILES: COc1cc(/C=C/c2nnc(NC(=O)c3cccc(O)c3)s2)cc(OC)c1OC
IC50 (A549 [1]): 190 nM | IC50 (Tubulin): 23670 nM | IC50 (MCF7): 460 nM | IC50 (HepG2): 260 nM

SMILES: COc1ccc(/C=C/c2nnc(NC(=O)c3cc(OC)c(OC)c(OC)c3Br)s2)cc1
IC50 (A549 [1]): 180 nM | IC50 (Tubulin): 28580 nM | IC50 (MCF7): 550 nM | IC50 (HepG2): 210 nM

SMILES: COc1cc(C(=O)Nc2nnc(/C=C/c3cc(OC)c(OC)c(OC)c3Br)s2)cc(OC)c1OC
IC50 (A549 [1]): 140 nM | IC50 (Tubulin): 16950 nM | IC50 (MCF7): 510 nM | IC50 (HepG2): 210 nM

SMILES: COc1ccc(/C=C/c2nnc(NC(=O)c3ccccc3OC)s2)cc1OC
IC50 (A549 [1]): 170 nM | IC50 (Tubulin): 29440 nM | IC50 (MCF7): 540 nM | IC50 (HepG2): 260 nM
